Legend:
CDK2/cyclin A2 = molecular target: T1, CDK2/cyclin A2 (Homo sapiens, UniProt P24941); experiment: Human CDK2/cyclin A2 inhibitory activity (QS S Assist CDK2/Cyclin A2_FP Kit, IMAP fluorescent polarization); type: biochemical; conditions: read-out: CDK2 Activity symbol
T1 construct: purchased Carna Biosciences, Inc. QS S Assist CDK2/Cyclin A2_FP Kit
Experimental: Human CDK2/Cyclin A2 Inhibitory Activity
(§1) Each compound was analyzed for CDK2/cyclin A2 inhibitory activity with an assay kit (QS S Assist CDK2/Cyclin A2_FP Kit, available from Carna Biosciences, Inc.). This assay kit determines kinase activity on the basis of the IMAP technology by Molecular Devices. Specifically, the kinase activity is determined through quantification of a variation in fluorescent polarization caused by binding of a kinase-phosphorylated fluorescent substance to an IMAP-binding reagent.
An assay buffer was prepared by 10-fold dilution of the 10× assay buffer attached to the kit with distilled water, and each solution was prepared with the assay buffer. The assay buffer contained 20 mM HEPES (pH 7.4), 0.01% Tween 20, and 2 mM dithiothreitol. A test compound solution was prepared by dilution of the test compound with dimethyl sulfoxide (DMSO) to a concentration 100 times higher than the final concentration and then 25-fold dilution with the assay buffer to a concentration four times higher than the final concentration. An ATP/substrate/Metal solution was prepared by five-fold dilution of the 5×ATP/substrate/Metal solution attached to the kit with the assay buffer. An enzyme solution was prepared by dilution of the CDK2/cyclin A2 attached to the kit with the assay buffer to a concentration twice higher than the final concentration (final concentration of CDK2/cyclin A2: 2.5 ng/well). A detection reagent was prepared by five-fold dilution of 5×IMAP-binding buffer A with distilled water and 400-fold dilution of the IMAP-binding reagent with the diluted buffer.
(§2) The test compound solution (5 μL/well) and the ATP/substrate/Metal solution (5 μL/well) were added to a 384-well plate, and the enzyme solution or the assay buffer (10 μL/well) was added to the plate (total amount of the reaction mixture: 20 μL/well) for initiation of enzymatic reaction. […] The reaction was performed at room temperature for 60 minutes, and the detection reagent (60 μL/well) was then added to the plate, followed by further reaction for 30 minutes at room temperature under light shielding conditions. Subsequently, fluorescent polarization was determined with a microplate reader at an excitation wavelength of 485 nm and an emission wavelength of 535 nm.
The percent inhibition of enzyme activity was calculated for each test compound (note: enzyme activity=100% in the case of addition of the enzyme solution and addition of DMSO instead of the test compound solution, whereas enzyme activity […] in the case of addition of the assay buffer instead of the enzyme solution and addition of DMSO instead of the test compound solution). The percent inhibition of enzyme activity was fitted to a dose-response curve, to determine a 50% inhibitory concentration against CDK2/cyclin A2.
In each table, “+++” corresponds to IC50<10 nM, “++” 10 nM≤IC50<100 nM, and “+” 100 nM≤IC50.

CDK4/cyclin D3 = molecular target: T2, CDK4/cyclin D3 (Homo sapiens, UniProt P11802); experiment: Human CDK4/cyclin D3 inhibitory activity (QS S Assist CDK4/Cyclin D3_FP Kit, IMAP fluorescent polarization); type: biochemical; conditions: read-out: CDK4 Activity symbol
T2 construct: purchased Carna Biosciences, Inc. QS S Assist CDK4/Cyclin D3_FP Kit
Experimental: Human CDK4/Cyclin D3 Inhibitory Activity
as §1, with “CDK4/cyclin D3” for “CDK2/cyclin A2”, “CDK4/Cyclin D3_FP” for “CDK2/Cyclin A2_FP”
Each solution was prepared with the 10× assay buffer attached to the kit or a separately prepared assay buffer having the same composition as the assay buffer attached to the kit. An assay buffer was prepared by 10-fold dilution of the 10× assay buffer with distilled water. The assay buffer contains 20 mM HEPES (pH 7.4), 0.01% Tween20, and 2 mM dithiothreitol. A test compound solution was prepared by dilution of the test compound with dimethyl sulfoxide (DMSO) to a concentration 100 times higher than the final concentration and then 25-fold dilution with the assay buffer to a concentration four times higher than the final concentration. An ATP/substrate/Metal solution was prepared by five-fold dilution of the 5×ATP/substrate/Metal solution attached to the kit with the assay buffer. An enzyme solution was prepared by dilution of the CDK4/cyclin D3 attached to the kit with the assay buffer to a concentration twice higher than the final concentration (final concentration of CDK4/cyclin D3: 12.5 to 25 ng/well). A detection reagent was prepared by five-fold dilution of each of 5×IMAP-binding buffer A and 5×IMAP-binding buffer B with distilled water, mixing of IMAP-binding buffer A with IMAP-binding buffer B at a ratio of 85:15, and 400-fold dilution of the IMAP-binding reagent with the mixed buffer.
as §2, with “for 45” for “for 60”
The percent inhibition of enzyme activity was calculated for each test compound (note: enzyme activity=100% in the case of addition of the enzyme solution and addition of DMSO instead of the test compound solution, whereas enzyme activity […] in the case of addition of the assay buffer instead of the enzyme solution, and addition of DMSO instead of the test compound solution). The percent inhibition of enzyme activity was fitted to a dose-response curve, to determine a 50% inhibitory concentration against CDK4/cyclin D3.
In each table, “+++” corresponds to IC50<10 nM. “++” 10 nM […] IC50<100 nM, and “+” 100 nM≤IC50.

T2 sequence (P11802 whole entry): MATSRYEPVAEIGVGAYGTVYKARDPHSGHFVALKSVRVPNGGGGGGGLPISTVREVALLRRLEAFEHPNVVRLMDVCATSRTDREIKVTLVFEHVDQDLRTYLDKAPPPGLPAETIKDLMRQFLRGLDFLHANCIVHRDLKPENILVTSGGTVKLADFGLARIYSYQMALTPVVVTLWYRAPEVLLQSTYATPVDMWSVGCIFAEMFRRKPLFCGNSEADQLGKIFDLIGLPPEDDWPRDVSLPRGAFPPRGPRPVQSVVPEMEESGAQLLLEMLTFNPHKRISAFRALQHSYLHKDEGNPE
T2 sequence (P30281 whole entry partner): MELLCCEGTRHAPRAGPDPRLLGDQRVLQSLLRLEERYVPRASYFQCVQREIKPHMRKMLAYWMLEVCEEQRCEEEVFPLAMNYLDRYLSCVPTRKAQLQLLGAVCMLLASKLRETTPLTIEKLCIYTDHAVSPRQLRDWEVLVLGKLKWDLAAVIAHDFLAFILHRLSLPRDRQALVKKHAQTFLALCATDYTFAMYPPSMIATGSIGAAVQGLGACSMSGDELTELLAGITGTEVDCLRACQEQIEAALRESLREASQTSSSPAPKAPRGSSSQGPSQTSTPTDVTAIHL

Structure (SMILES)	IC50 (CDK2/cyclin A2) [nM]	IC50 (CDK4/cyclin D3) [nM]
C[C@@H](O)c1cc2cnc(Nc3ccc(CN4CCNCC4)cn3)nc2c(N2CCCC2C(=O)O)n1 (stereo partly drawn) [Compound 42]	≥ 100	≥ 100
C[C@@H](O)c1cc2cnc(Nc3ccc(N4CCNCC4=O)cn3)nc2c(N2CCC2)n1 [Compound 50]	≥ 100	10 to 100
C[C@@H](O)c1cc2cnc(Nc3ccc(N4CCNCC4=O)cn3)nc2c(N2CCCC2)n1 [Compound 51]	≥ 100	< 10
C[C@@H](O)c1cc2cnc(Nc3ccc(N4CCNCC4=O)cn3)nc2c(N2CCCCC2)n1 [Compound 52]	≥ 100	< 10
Cc1nc(Nc2ncc3cc([C@@H](C)O)nc(N4CCCC4)c3n2)ccc1N1CCN(C)CC1 [Compound 53]	≥ 100	< 10
Cc1nc(Nc2ncc3cc([C@@H](C)O)nc(N4CCCCC4)c3n2)ccc1N1CCN(C)CC1 [Compound 54]	≥ 100	< 10
C[C@@H](O)c1cc2cnc(Nc3ccc4c(n3)CCN(CCN(C)C)C4)nc2c(N2CCCCC2)n1 [Compound 60]	≥ 100	< 10
C[C@@H](O)c1cc2cnc(Nc3ccc4c(n3)CCN(CCN(C)C)C4)nc2c(N2CCC(F)CC2)n1 [Compound 61]	≥ 100	< 10
C[C@@H](O)c1cc2cnc(Nc3ccc4c(n3)CCNC4)nc2c(N2CCCCC2)n1 [Compound 62]	≥ 100	< 10
C[C@@H](O)c1cc2cnc(Nc3ccc4c(n3)CCNC4)nc2c(N2CCC(F)CC2)n1 [Compound 63]	≥ 100	< 10
C[C@@H](O)c1cc2cnc(Nc3ccc(N4CCNCC4=O)cn3)nc2c(N2CCC(F)(F)CC2)n1 [Compound 64]	≥ 100	< 10
C[C@@H](O)c1cc2cnc(Nc3ccc(CN4CCC(O)CC4)cn3)nc2c(N2CCCCC2)n1 [Compound 65]	≥ 100	< 10
C[C@@H](O)c1cc2cnc(Nc3ccc(CN4CCC(O)CC4)cn3)nc2c(N2CCCC2)n1 [Compound 66]	≥ 100	10 to 100
C[C@@H](O)c1cc2cnc(Nc3ccc(CN4CCC(CO)CC4)cn3)nc2c(N2CCCCC2)n1 [Compound 68]	≥ 100	< 10
C[C@@H](O)c1cc2cnc(Nc3ccc(N4CCN(C)CC4=O)cn3)nc2c(N2CCCCC2)n1 [Compound 72]	≥ 100	< 10
C[C@@H](O)c1cc2cnc(Nc3ccc(N4CCN(C)CC4=O)cn3)nc2c(N2CCCC2)n1 [Compound 73]	≥ 100	10 to 100
C[C@@H](O)c1cc2cnc(Nc3ccc(N4CCN(C)CC4=O)cn3)nc2c(N2CCOCC2)n1 [Compound 74]	≥ 100	10 to 100
C[C@@H](O)c1cc2cnc(Nc3ccc4c(n3)CCNC4)nc2c(N2CCC(F)(F)CC2)n1 [Compound 80]	≥ 100	< 10
C[C@@H](O)c1cc2cnc(Nc3ccc4c(n3)CCN(CCO)C4)nc2c(N2CCC(F)(F)CC2)n1 [Compound 81]	≥ 100	< 10
C[C@@H](O)c1cc2cnc(Nc3ccc4c(n3)CCN(CCN(C)C)C4)nc2c(N2CCC(F)(F)CC2)n1 [Compound 82]	≥ 100	< 10

Continued, values first:

IC50 (CDK2/cyclin A2) [nM]	IC50 (CDK4/cyclin D3) [nM]	Structure (SMILES)
≥ 100	10 to 100	C[C@@H](O)c1cc2cnc(Nc3ccc(CN4CCN(CCO)CC4)cn3)nc2c(N2CCC2)n1 [Compound 47]
≥ 100	< 10	C[C@@H](O)c1cc2cnc(Nc3ccc(CN4CCN(CCO)CC4)cn3)nc2c(N2CCCC2)n1 [Compound 48]
≥ 100	< 10	C[C@@H](O)c1cc2cnc(Nc3ccc(CN4CCN(CCO)CC4)cn3)nc2c(N2CCCCC2)n1 [Compound 49]
≥ 100	< 10	C[C@@H](O)c1cc2cnc(Nc3ccc(CN4CCN(C)CC4)cn3)nc2c(N2CCCC2)n1 [Compound 55]
≥ 100	< 10	C[C@@H](O)c1cc2cnc(Nc3ccc(CN4CCN(C)CC4)cn3)nc2c(N2CCCCC2)n1 [Compound 56]
≥ 100	< 10	C[C@@H](O)c1cc2cnc(Nc3ccc(CN4CCN(CCO)CC4)cn3)nc2c(N2CC3(CCC3)C2)n1 [Compound 57]
≥ 100	10 to 100	C[C@@H](O)c1cc2cnc(Nc3ccc(CN4CCN(CCO)CC4)cn3)nc2c(N2CCOCC2)n1 [Compound 58]
≥ 100	< 10	C[C@@H](O)c1cc2cnc(Nc3ccc(CN4CCN(CCO)CC4)cn3)nc2c(N2CCCCCC2)n1 [Compound 59]
≥ 100	10 to 100	C[C@@H](O)c1cc2cnc(Nc3ccc(CN4CCC(O)CC4)cn3)nc2c(N2CCOCC2)n1 [Compound 67]
≥ 100	< 10	C[C@@H](O)c1cc2cnc(Nc3ccc(CN4CCC(CO)CC4)cn3)nc2c(N2CCCC2)n1 [Compound 69]
≥ 100	10 to 100	C[C@@H](O)c1cc2cnc(Nc3ccc(CN4CCC(CO)CC4)cn3)nc2c(N2CCOCC2)n1 [Compound 70]
10 to 100	< 10	C[C@@H](O)c1cc2cnc(Nc3ccc(CN4CCN(CCO)CC4)cn3)nc2c(N2CCCC2(C)C)n1 [Compound 75]
≥ 100	< 10	C[C@@H](O)c1cc2cnc(Nc3ccc(CN4CCN(CCO)CC4)cn3)nc2c(N2CCC(C(=O)O)CC2)n1 [Compound 76]
≥ 100	10 to 100	C[C@@H](O)c1cc2cnc(Nc3ccc(CN4CCN(CCO)CC4)cn3)nc2c(N2CCN(C)CC2)n1 [Compound 77]
≥ 100	< 10	C[C@@H](O)c1cc2cnc(Nc3ccc(CN4CCN(CCO)CC4)cn3)nc2c(N2CCC(F)CC2)n1 [Compound 78]
≥ 100	< 10	C[C@@H](O)c1cc2cnc(Nc3ccc(CN4CCN(CCO)CC4)cn3)nc2c(N2CCC(F)(F)CC2)n1 [Compound 79]
10 to 100	< 10	CC(O)c1cc2cnc(Nc3ccc(CN4CCN(CCO)CC4)cn3)nc2c(N2CCCC2C)n1 (stereo not drawn) [Compound 83]
≥ 100	< 10	C[C@@H](O)c1cc2cnc(Nc3ccc(CN4CCN(CCO)CC4)cn3)nc2c(N2CCC(C(F)(F)F)CC2)n1 [Compound 84]
≥ 100	10 to 100	C[C@@H](O)c1cc2cnc(Nc3ccc(CN4CCN(CCO)CC4)cn3)nc2c(N2CCS(=O)(=O)CC2)n1 [Compound 85]

From patent US11084814B2, “Pyrido[3, 4-d]pyrimidine derivative and pharmaceutically acceptable salt thereof” (Teijin Pharma Limited, priority 2016, dated 2021)
